The subject of assay [1] is HT-1080. Description: Binding affinity to beta-tubulin in human HT1080 cells after overnight incubation by SDS-PAGE. Format: cell-based.
Assay [2] has as its target T1, Tubulin (Sus scrofa) (UniProt P02554+P02550). Put plainly: Binding affinity to pig tubulin assessed as irradiation-time-dependent labeling at 2 uM treated for 30 mins followed by photo-irradiation at 365 nm by CBB staining-based SDS-PAGE. Format: protein assay. The settings on record: TDE = time-dependent effect.
The species named for assay [3] is Sus scrofa. Description: Binding affinity to pig alpha-tubulin at 2 uM treated for 30 mins followed by photo-irradiation at 365 nm for 30 secs measured after 1 hr by Western blot analysis.
Assay [4] is filed under the species Sus scrofa. Description: Binding affinity to pig beta-tubulin at 2 uM treated for 30 mins followed by photo-irradiation at 365 nm for 30 secs measured after 1 hr by Western blot analysis.
Assay [5] has as its target T1, Tubulin (Sus scrofa). Description: Binding affinity to pig tubulin at 2 uM treated for 30 mins followed by photo-irradiation at 365 nm for 30 secs measured after 1 hr by Western blot analysis in presence of increasing concentration of plinabulin. The format is protein assay.
In assay [6] the target is T1, Tubulin (Sus scrofa). Description: Binding affinity to pig tubulin at 2 uM treated for 30 mins followed by photo-irradiation at 365 nm for 30 secs measured after 1 hr by Western blot analysis in presence of 100 equivalents of colchicine. The format is protein assay. In general terms: Immunoblotting shows a protein as a band on a membrane.
Assay [7] addresses T1, Tubulin (Sus scrofa). Description: Binding affinity to pig tubulin at 2 uM treated for 30 mins followed by photo-irradiation at 365 nm for 30 secs measured after 1 hr by Western blot analysis in presence of 5-100 equivalents of biotin. Format: protein assay.
The target of assay [8] is T1, Tubulin (Sus scrofa). Put plainly: Binding affinity to pig tubulin at 2 uM treated for 30 mins followed by photo-irradiation at 365 nm for 30 secs measured after 1 hr by CBB staining-based SDS-PAGE. The format is protein assay.
For the next assay, the target named is Tubulin (Sus scrofa, UniProt P02554+P02550). Description: Binding affinity to pig tubulin after 1 hr by fluorescence quenching analysis. Format: protein assay.
Assay [9] concerns HT-1080. Put plainly: Binding affinity to alpha-tubulin in human HT1080 cells after overnight incubation by SDS-PAGE. The format is cell-based.
The subject of another assay is HT-29. Description: Cytotoxicity against human HT-29 cells. The format is functional, cell-based.
For assay [10], the target named is T1, Tubulin (Sus scrofa). Put plainly: Binding affinity to pig tubulin at 2 uM treated for 30 mins followed by photo-irradiation at 365 nm for 30 secs measured after 1 hr by Western blot analysis. The format is protein assay.

The source made the active and inactive calls. The calls are words filed in the database; no cut-off is given here. Square brackets hold non-standard residues; d marks the D form. Peptide text beside a SMILES is read from it. * marks the point of attachment. Biotin = O=C1N[C@H]2[C@H](CS[C@H]2CCCCC(=O)*)N1; Ahx = NCCCCCC(=O)O

The results in this text go back to ChEMBL document CHEMBL1157782, “Anti-microtubule 'plinabulin' chemical probe KPU-244-B3 labeled both alpha- and beta-tubulin” (Bioorg Med Chem, 2010).

T1 sequence (P02550 whole entry, looked up): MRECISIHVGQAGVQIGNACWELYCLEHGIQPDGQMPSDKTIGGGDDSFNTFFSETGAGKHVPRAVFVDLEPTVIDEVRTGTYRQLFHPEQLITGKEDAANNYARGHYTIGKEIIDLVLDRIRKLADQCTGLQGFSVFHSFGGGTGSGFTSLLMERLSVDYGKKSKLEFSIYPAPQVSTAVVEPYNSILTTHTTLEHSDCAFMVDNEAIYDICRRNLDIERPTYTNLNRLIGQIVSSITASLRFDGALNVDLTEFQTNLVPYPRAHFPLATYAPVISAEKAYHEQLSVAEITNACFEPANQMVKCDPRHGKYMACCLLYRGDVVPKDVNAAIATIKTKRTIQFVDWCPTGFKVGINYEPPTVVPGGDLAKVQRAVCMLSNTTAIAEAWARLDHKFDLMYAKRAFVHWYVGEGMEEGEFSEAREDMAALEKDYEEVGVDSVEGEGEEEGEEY
T1 sequence (P02554 whole entry, looked up): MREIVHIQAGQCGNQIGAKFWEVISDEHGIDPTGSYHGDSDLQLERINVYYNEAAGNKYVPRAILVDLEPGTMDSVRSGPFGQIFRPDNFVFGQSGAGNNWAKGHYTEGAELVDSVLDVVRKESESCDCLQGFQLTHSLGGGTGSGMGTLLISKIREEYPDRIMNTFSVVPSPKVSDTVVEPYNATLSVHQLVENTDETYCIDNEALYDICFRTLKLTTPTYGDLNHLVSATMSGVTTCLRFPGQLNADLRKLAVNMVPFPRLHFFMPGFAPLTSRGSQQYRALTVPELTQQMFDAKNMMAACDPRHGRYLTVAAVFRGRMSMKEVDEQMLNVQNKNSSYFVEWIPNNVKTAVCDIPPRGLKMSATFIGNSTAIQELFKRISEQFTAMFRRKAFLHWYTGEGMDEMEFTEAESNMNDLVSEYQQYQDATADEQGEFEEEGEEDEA

As to `CC(C)(C)c1ocnc1/C=c1\[nH]c(=O)/c(=C/c2cccc(C(=O)c3ccc(CNC(=O)CCCCCNC(=O)CCCCCNC(=O)CCCCCNC(=O)CCCCCNC(=O)[C@H](CCCCN)NC(=O)[C@H](CCCCN)NC(=O)CCCCCNC(=O)CCCCCNC(=O)CCCC[C@@H]4SC[C@@H]5NC(=O)N[C@@H]54)cc3)c2)[nH]c1=O` (stereo in doubt), the outcome in the assay on HT-1080 [1], in the assay filed under Sus scrofa [3], in the assay filed under Sus scrofa [4], on Tubulin (Sus scrofa) [7], at Tubulin (Sus scrofa) [8] and in the assay on HT-1080 [9] was Active. For the same molecule, the Activity result at Tubulin (Sus scrofa) [2] is “tde”. For the same molecule, the result on Tubulin (Sus scrofa) [5] and at Tubulin (Sus scrofa) [6] was inactive. This molecule also gave a Kd on Tubulin of 25170 nM.

With `CC(C)(C)c1[nH]cnc1/C=c1\[nH]c(=O)/c(=C/c2ccccc2)[nH]c1=O` [PLINABULIN], in the assay on HT-29, the half-maximal inhibitory concentration (IC50) was 15 nM. The molecule also gave a Kd on Tubulin of 1060 nM.

For the molecule `NCCCC[C@H](NC(=O)CCCCCNC(=O)CCCCCNC(=O)CCCC[C@@H]1SC[C@@H]2NC(=O)N[C@@H]21)C(=O)N[C@@H](CCCCN)C(=O)NCCCCCC(=O)NCCCCCC(=O)NCCCCCC(=O)NCCCCCC(=O)O` ({Biotin-Ahx-Ahx}-KK[Ahx][Ahx][Ahx][Ahx]-OH), the outcome in the assay on HT-1080 [1] and in the assay on HT-1080 [9] was inactive.

In the case of `CC(C)(C)c1ocnc1/C=c1\[nH]c(=O)/c(=C/c2cccc(C(=O)c3ccc(CNC(=O)CCCCCNC(=O)CCCCCNC(=O)CCCC[C@@H]4SC[C@@H]5NC(=O)N[C@@H]54)cc3)c2)[nH]c1=O` (stereo in doubt), at Tubulin (Sus scrofa) [10], the outcome was Active. The Kd at Tubulin was 9740 nM.

Turning to `CC(C)(C)c1ocnc1/C=c1\[nH]c(=O)/c(=C/c2cccc(C(=O)c3ccccc3)c2)[nH]c1=O`, the IC50 with HT-29 was found to be 4 nM.

What is called Kd is the constant that tells how readily two partners part at equilibrium. What is called IC50 is the concentration that gives 50% inhibition. Lower therefore signals greater potency in that assay.
